Laboratory results: PubChem BioAssay (NCI)
“And” between values parts separate entries of the source, which are not always exact repeats. Identical values can stand only once.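 Following 48 hours of exposure in 96-well plates, responses at five concentrations were used to interpolate endpoints linearly. GI50 marks 50% less growth. TGI denotes the concentration required for complete inhibition of growth.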

Experiments:
Assay in all cases: NCI tumour cell line growth inhibition, 48 h
HCC-2998 colon = system: HCC-2998 colon
RXF 393 renal = system: RXF 393 renal
CCRF-CEM leukemia = system: CCRF-CEM leukemia
HL-60(TB) leukemia = system: HL-60(TB) leukemia
HOP-18 NSCLC = system: HOP-18 NSCLC
M19-MEL melanoma = system: M19-MEL melanoma
CAKI-1 renal = system: CAKI-1 renal
NCI-H522 lung = system: NCI-H522 lung
MDA-MB-435 = system: MDA-MB-435
NCI-H226 lung = system: NCI-H226 lung

SMILES	TGI (HCC-2998 colon) [µM]	TGI (RXF 393 renal)	TGI (CCRF-CEM leukemia) [µM]	TGI (HL-60(TB) leukemia) [µM]	TGI (HOP-18 NSCLC) [µM]	TGI (M19-MEL melanoma)	TGI (CAKI-1 renal) [µM]	TGI (NCI-H522 lung) [µM]	TGI (MDA-MB-435) [µM]	TGI (NCI-H226 lung)	GI50 (HCC-2998 colon)	GI50 (RXF 393 renal)	GI50 (HL-60(TB) leukemia)	GI50 (HOP-18 NSCLC) [µM]	GI50 (M19-MEL melanoma) [µM]	GI50 (CAKI-1 renal) [µM]	GI50 (NCI-H522 lung)	GI50 (NCI-H226 lung) [µM]	GI50 (MDA-MB-435)	GI50 (CCRF-CEM leukemia)
Clc1ccccc1C1N2CCCCC2[C@@H]2c3[nH]c4ccccc4c3CCN12 (stereo partly drawn)	36.9	40.2 µM	52.9	> 100	> 100	29.2 µM	–	–	–	–	–	–	–	–	–	–	–	–	–	–
CC(C)[C@](O)(C(=O)OCC1=CC[N+]2([O-])CC[C@@H](O)[C@@H]12)[C@H](C)O (stereo partly drawn)	> 10000	> 7940 µM	> 10000	9860	> 10000	> 10000 µM	> 9520	> 10000	> 10000	> 10000 µM	–	–	–	–	–	–	–	–	–	–
CCCCCCCCCCCCC/C=C1\C[C@H](O)COC1=O	37.2	42.6 µM	36.6	39.9	31.6	33.6 µM	32.9	33.5	–	32.9 µM	–	–	–	–	–	–	–	–	–	–
COC1=C(C)C(=O)C2=C(C1=O)C(CO)N1C(C#N)C3CC4C(C1C2N1CCOC41)N3C (stereo not drawn)	–	–	–	–	0.326	0.177 µM and 0.11 µM	–	–	–	–	0.00395 µM	0.00201 µM and 0.0178 µM	0.000183 µM	0.0484	0.0319	–	–	–	–	–
c1ccc(CCCC2Sc3cccc4cccc(c34)S2)cc1	> 100	> 100 µM	> 100	> 100	–	> 100 µM	> 100	> 100	–	> 100 µM	–	–	–	–	–	–	–	–	–	–
N.N.N.N.N.N#N.[Cl-].[Os+7]	> 100	> 100 µM	–	–	> 100	–	> 100	> 100	–	> 100 µM	> 100 µM	> 100 µM	–	> 100	–	> 100	> 100 µM	> 100	–	–
[C-]#[O+].[C-]#[O+].[Ir].[O-]c1ccc2ccccc2c1N=Nc1ccccc1	29.4	6.78 µM	7.42	7.76	10.3	21.2 µM	22.7	4.01	54.4	31.9 µM	–	–	–	0.313	3.24	–	–	–	–	–
CCOC(=O)C12CCSC1C1(C#N)C(C#N)=CC2(N=P(c2ccccc2)(c2ccccc2)c2ccccc2)n2c(=O)n(-c3ccccc3)c(=O)n21 (stereo not drawn)	> 100	> 100 µM	> 100	71.5	–	98.5 µM	> 100	87.2	–	> 100 µM	–	–	–	–	–	–	–	–	–	–
Cc1cccc(Cl)c1NC(N)=S	> 100	–	> 100	> 100	98.6	> 100 µM	> 100	–	–	> 100 µM	–	–	–	–	–	–	–	–	–	–
Cc1ccc(/C=N/NS(=O)(=O)c2ccccc2)cc1	> 100	> 100 µM	> 100	> 100	> 100	–	> 100	–	–	> 100 µM	–	–	–	–	–	–	–	–	–	–
CCOc1ccccc1NC(=O)C(=O)C(C(=O)c1ccc2ccccc2c1)C1OC(=O)c2ccccc21 (stereo not drawn)	22.9	9.05 µM	69.1	59.3	36.3	–	36.8	27.4	–	7.06 µM	–	–	–	–	–	–	–	–	–	–
NC1=NN(c2ccccc2)C(=O)C1/C(=N\NC(=O)c1cc2ccccc2cc1O)C(=O)Nc1nc([N+](=O)[O-])cs1 (stereo not drawn)	> 100	7.27 µM	59.7	37.9	> 100	> 82.9 µM	99	37.2	–	> 100 µM	–	–	–	–	–	–	–	–	–	–
CC1(C(=O)NCCN(CCNC(=O)C2(C)CC3(C)CC(C)(C2)C(=O)NC3=O)CCNC(=O)C2(C)CC3(C)CC(C)(C2)C(=O)NC3=O)CC2(C)CC(C)(C1)C(=O)NC2=O (stereo not drawn)	> 100	> 100 µM	> 100	> 100	> 100	> 100 µM	> 100	–	–	–	–	–	–	–	–	–	–	–	–	–
C/C=C/C(=O)[C@@H](O)C(C)C	> 100	> 100 µM	–	–	–	> 100 µM	> 100	> 100	–	> 100 µM	–	–	–	–	–	–	–	–	–	–
COc1ccc(C(=O)Nc2ccc(S(=O)(=O)NCC(=O)O)cc2)cc1	> 100	> 100 µM	> 100	> 100	> 100	> 100 µM	> 100	> 100	–	–	–	–	–	–	–	–	–	–	–	–
O=C(O)c1c([N+](=O)[O-])cc(C(F)(F)F)cc1[N+](=O)[O-]	–	> 100 µM	> 100	> 100	–	> 100 µM	> 100	> 100	–	> 100 µM	–	–	–	–	–	–	–	–	–	–
O=C(N[C@@H]1C=CCC[C@@H]1c1ccccc1)OCc1ccccc1	49.3	35.9 µM	43.9	34.6	46.9	45.1 µM	45.1	30.9	–	36.4 µM	–	–	–	–	–	–	–	–	–	–
CSc1c(S(C)=O)[nH]c2cc(Br)cc(Br)c12 (stereo not drawn)	34.7	33.6 µM	58.5	52.3	80.5	75.4 µM	74.3	55.5	–	67.9 µM	–	–	–	–	–	–	–	–	–	–
O=c1c2cc(Br)ccc2nc(-c2ccccc2)n1NCC1(O)OCC(O)C(O)C1O (stereo not drawn)	–	> 100 µM	> 100	> 100	–	> 100 µM	> 100	> 100	–	> 100 µM	–	–	–	–	–	–	–	–	–	–
COc1ccc2[nH]c3c(C)c4cc[n+](C)cc4c(C)c3c2c1	–	16.5 µM [middle of 4 runs]	–	–	–	3.69 µM and 2.48 µM and 2.89 µM	–	–	> 88.3	1.52 µM and 1.13 µM and 0.572 µM	2.41 µM and 1.02 µM	1.54 µM	8.31 µM and 9.67 µM	–	0.327	–	0.167 µM and 0.0825 µM	0.111	13.4 µM and 5.86 µM	0.706 µM and 1.92 µM
